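A five-concentration, 48-hour dose response in 96-well plates underlies each endpoint, interpolated linearly between surrounding concentrations. GI50: concentration for 50% inhibition of growth. TGI: total growth inhibition.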
What was measured:
Assay in all cases: NCI tumour cell line growth inhibition, 48 h
A498 renal = tested on: A498 renal
SK-MEL-5 melanoma = tested on: SK-MEL-5 melanoma
BT-549 breast = tested on: BT-549 breast
LOX IMVI melanoma = tested on: LOX IMVI melanoma
NCI-H23 lung = tested on: NCI-H23 lung
KM12 colon = tested on: KM12 colon
A549 NSCLC = tested on: A549 NSCLC
T-47D breast = tested on: T-47D breast
UACC-257 melanoma = tested on: UACC-257 melanoma
RPMI-8226 leukemia = tested on: RPMI-8226 leukemia
MOLT-4 leukemia = tested on: MOLT-4 leukemia
OVCAR-3 ovarian = tested on: OVCAR-3 ovarian
SF-295 CNS = tested on: SF-295 CNS
NCI-H460 lung = tested on: NCI-H460 lung
PC-3 prostate = tested on: PC-3 prostate
K-562 leukemia = tested on: K-562 leukemia
HOP-62 NSCLC = tested on: HOP-62 NSCLC
MCF7 breast = tested on: MCF7 breast
M14 melanoma = tested on: M14 melanoma
SF-268 CNS = tested on: SF-268 CNS
COLO 205 colon = tested on: COLO 205 colon
SK-MEL-2 melanoma = tested on: SK-MEL-2 melanoma
SR leukemia = tested on: SR leukemia
CAKI-1 renal = tested on: CAKI-1 renal
SNB-75 CNS = tested on: SNB-75 CNS
U251 CNS = tested on: U251 CNS
HL-60(TB) leukemia = tested on: HL-60(TB) leukemia
OVCAR-4 ovarian = tested on: OVCAR-4 ovarian
UACC-62 melanoma = tested on: UACC-62 melanoma
IGROV1 ovarian = tested on: IGROV1 ovarian
OVCAR-5 ovarian = tested on: OVCAR-5 ovarian
HCT-116 colon = tested on: HCT-116 colon
HCC-2998 colon = tested on: HCC-2998 colon
TK-10 renal = tested on: TK-10 renal
SNB-19 CNS = tested on: SNB-19 CNS
HCT-15 colon = tested on: HCT-15 colon
786-0 renal = tested on: 786-0 renal
SK-MEL-28 melanoma = tested on: SK-MEL-28 melanoma
NCI/ADR-RES ovarian = tested on: NCI/ADR-RES ovarian
SK-OV-3 ovarian = tested on: SK-OV-3 ovarian
NCI-H226 lung = tested on: NCI-H226 lung
HT29 colon = tested on: HT29 colon
ACHN renal = tested on: ACHN renal
SW-620 colon = tested on: SW-620 colon
HOP-92 NSCLC = tested on: HOP-92 NSCLC
UO-31 renal = tested on: UO-31 renal
RXF 393 renal = tested on: RXF 393 renal
HS 578T breast = tested on: HS 578T breast
EKVX NSCLC = tested on: EKVX NSCLC
DU-145 prostate = tested on: DU-145 prostate
CCRF-CEM leukemia = tested on: CCRF-CEM leukemia
MDA-MB-435 = tested on: MDA-MB-435
SN12C renal = tested on: SN12C renal
OVCAR-8 ovarian = tested on: OVCAR-8 ovarian
NCI-H522 lung = tested on: NCI-H522 lung
MALME-3M melanoma = tested on: MALME-3M melanoma
MDA-MB-231 breast = tested on: MDA-MB-231 breast
SF-539 CNS = tested on: SF-539 CNS

## Oc1c(I)cc(I)cc1CN(Cc1ccccn1)Cc1ccccn1
A498 renal
  GI50: 1290 nM
  TGI: 6190 nM
SK-MEL-5 melanoma
  GI50: 542 nM
  TGI: 2590 nM
BT-549 breast
  GI50: 1120 nM
  TGI: 13800 nM
LOX IMVI melanoma
  GI50: 629 nM
  TGI: > 33800 nM
NCI-H23 lung
  GI50: 2480 nM
  TGI: 40600 nM
KM12 colon
  GI50: 774 nM
  TGI: > 42300 nM
A549 NSCLC
  GI50: 906 nM
  TGI: 13400 nM
T-47D breast
  GI50: 1340 nM
  TGI: 10600 nM
UACC-257 melanoma
  GI50: 2800 nM
  TGI: 14500 nM
RPMI-8226 leukemia
  GI50: 1170 nM
  TGI: 14100 nM
MOLT-4 leukemia
  GI50: 890 nM
  TGI: 10700 nM
OVCAR-3 ovarian
  GI50: 1830 nM
  TGI: 15100 nM
SF-295 CNS
  GI50: 658 nM
  TGI: > 27100 nM
NCI-H460 lung
  GI50: 456 nM
  TGI: 8680 nM
PC-3 prostate
  GI50: 898 nM
  TGI: 20600 nM
K-562 leukemia
  GI50: 548 nM
  TGI: 14600 nM
HOP-62 NSCLC
  GI50: 311 nM
  TGI: 8450 nM
MCF7 breast
  GI50: 548 nM
  TGI: > 39900 nM
M14 melanoma
  GI50: 766 nM
  TGI: 9860 nM
SF-268 CNS
  GI50: 575 nM
  TGI: 16100 nM
COLO 205 colon
  GI50: 2000 nM
  TGI: 15100 nM
SK-MEL-2 melanoma
  GI50: 2080 nM
  TGI: 12200 nM
SR leukemia
  GI50: 476 nM
  TGI: 9770 nM
CAKI-1 renal
  GI50: 499 nM
  TGI: 12200 nM
SNB-75 CNS
  GI50: 419 nM
  TGI: 7670 nM
U251 CNS
  GI50: 419 nM
  TGI: 11700 nM
HL-60(TB) leukemia
  GI50: 1300 nM
  TGI: 7030 nM
OVCAR-4 ovarian
  GI50: 658 nM
  TGI: > 44100 nM
UACC-62 melanoma
  GI50: 499 nM
  TGI: 5730 nM
IGROV1 ovarian
  GI50: 1120 nM
  TGI: 12600 nM
OVCAR-5 ovarian
  GI50: 2140 nM
  TGI: 53500 nM
HCT-116 colon
  GI50: 666 nM
  TGI: 12400 nM
HCC-2998 colon
  GI50: 4180 nM
  TGI: 34700 nM
TK-10 renal
  GI50: 367 nM
  TGI: 11700 nM
SNB-19 CNS
  GI50: 860 nM
  TGI: > 64200 nM
HCT-15 colon
  GI50: 453 nM
  TGI: > 40600 nM
786-0 renal
  GI50: 952 nM
  TGI: 12000 nM
SK-MEL-28 melanoma
  GI50: 1440 nM
  TGI: 31600 nM
NCI/ADR-RES ovarian
  GI50: 1130 nM
  TGI: 6460 nM
SK-OV-3 ovarian
  GI50: 476 nM
  TGI: 5300 nM
NCI-H226 lung
  GI50: 1160 nM
  TGI: 7480 nM
HT29 colon
  GI50: 3930 nM
  TGI: 18000 nM
ACHN renal
  GI50: 502 nM
  TGI: 6980 nM
SW-620 colon
  GI50: 847 nM
  TGI: 23500 nM
HOP-92 NSCLC
  GI50: 1180 nM
  TGI: 9040 nM
UO-31 renal
  GI50: 554 nM
  TGI: 3070 nM
RXF 393 renal
  GI50: 1860 nM
  TGI: 9760 nM
HS 578T breast
  GI50: 2060 nM
  TGI: 16000 nM
EKVX NSCLC
  GI50: 987 nM
  TGI: 17200 nM
DU-145 prostate
  GI50: 1570 nM
  TGI: 20400 nM
CCRF-CEM leukemia
  GI50: 385 nM
  TGI: 30800 nM
MDA-MB-435
  GI50: 2190 nM
  TGI: 18700 nM
SN12C renal
  GI50: 1230 nM
  TGI: 33600 nM
OVCAR-8 ovarian
  GI50: 547 nM
  TGI: 23200 nM
NCI-H522 lung
  GI50: 2040 nM
  TGI: 28000 nM
MALME-3M melanoma
  GI50: 1840 nM
  TGI: 9200 nM
MDA-MB-231 breast
  GI50: 1860 nM
  TGI: > 51300 nM
SF-539 CNS
  GI50: 855 nM
  TGI: 10000 nM
